According to ChEMBL document CHEMBL1157539, “Thousands of chemical starting points for antimalarial lead identification” (Nature, 2010):

Test system: Plasmodium falciparum
Test: GSK_TCMDC: Inhibition of Plasmodium falciparum 3D7 in whole erythrocytes, using parasite LDH activity as an index of growth.
Assay type: functional, organism-based
Settings: Plasmodium falciparum, 3D7

SMILES | XC50 [nM]
COc1ccc2[nH]cc(C3=CCN(Cc4ccccc4)CC3)c2c1 | 569
NCCC(=O)Nc1ccc(-c2cnc3[nH]cc(-c4ccc(C(=O)O)cc4)c3c2)cn1 | 842
CC(C)(C)c1ccc(-c2cc3c(ccc4nc(N)nc(N)c43)[nH]2)cc1 | 113
N=C(N)NC(=O)Nc1cc(Br)c(Cl)c(C(F)(F)F)c1 | 758
N=C(N)Nc1nc(-c2cccc(NC(=O)NCc3cccc4ccccc34)c2)cs1 | 841
CCCCNCc1ccc(OCc2cccc(COc3ccc(CNCCCC)cc3I)c2)c(I)c1 | 1120
O=c1c2ccc(Sc3ccccn3)cc2n(-c2ccccc2)c2cc(Sc3ccccn3)ccc12 | 203
CCc1ccc(NC(=O)N(CCCn2ccnc2)Cc2csc(-c3ccc(CNCc4ccccc4)cc3)n2)cc1 | 757
COCCNCc1cccc(-c2ccc3c(Nc4ccc(Oc5ccccc5)cc4)ccnc3c2)c1 | 517
O=C(NCC1CC1)C1CCN(C(c2ccccc2)c2ccc(Cl)c(Cl)c2)CC1 (centres undefined) | 369
CCN(CC)CCOc1ccc(C(O)(C#CC(O)(c2ccccc2)c2ccc(OCCN(CC)CC)cc2)c2ccccc2)cc1 (centres undefined) | 1310
COc1cccc2c(NN=Cc3cccc(F)c3)ccnc12 | 932
COc1cccc(CNC[C@@H](O)[C@H](Cc2ccccc2)NC(=O)c2cc(C3CCCC3)cc(N3CCCCS3(=O)=O)c2)c1 | 599
O=C(c1ccc(F)cc1)N1CCOC(CCN2CCC(c3ccccc3)CC2)(c2ccc(Cl)c(Cl)c2)C1 (centres undefined) | 749
Cc1nc(C)c(-c2ccc(Oc3ccc(OC(F)(F)F)cc3)cc2)c(OC(=O)N(CCNC(C)C)C(C)C)c1Br | 171
O=c1cc(NCCCNCc2scc(I)c2I)[nH]c2ccccc12 | 586
COC(=O)c1sc2ccccc2c1NC(=O)c1ccc(C)c(C)c1 | 1070
Cc1noc(C)c1-c1ccc2c(Nc3ccccc3C(C)(C)C)c(C(=O)NCc3ccc(C(F)(F)F)cc3)cnc2c1 | 762
COc1cc(NC(=O)c2ccc3oc4ccccc4c3c2)ccc1OCCN1CCCCC1 | 924
O=C(Nc1cccc(F)c1)NC1CCN(c2ccnc3cc(Cl)ccc23)C1 (centres undefined) | 189

SMILES | XC50 [nM]
c1ccc(-n2ncc(CNCc3ccc(-c4cccc(-c5nc6ccccc6[nH]5)c4)cc3)n2)cc1 | 1230
Cc1ccc(Nc2nc(N)c3ccccc3n2)cc1 | 839
CNC(=O)CSc1nnc(-c2ccc(C)cc2)c(-c2ccc(C)cc2)n1 | 600
Nc1nc(N)c2c(ccc3nn(S(=O)(=O)N4CCCC4)cc32)n1 | 96.6
OC1(c2ccc(Cl)c(C(F)(F)F)c2)CCN(CCOC2c3ccccc3CSc3ccc(Cl)cc32)CC1 (centres undefined) | 799
CCCCCCOc1ccc2ccccc2c1CNCCCCCCNCc1c(OCCCCCC)ccc2ccccc12 | 1060
CCCN(CCC)CCCNc1ccc(C(=O)Nc2ccc(C(C)C)cc2)cc1[N+](=O)[O-] | 709
CN1CCCC(COc2cc3c(cc2Br)CCN3C(=O)Nc2ccc(-c3ccncc3)c(Cl)c2)C1 (centres undefined) | 234
c1cc(CN2CCN(c3ccncc3)CC2)cc(-c2ccc(-c3nc4ccccc4[nH]3)cc2)c1 | 153
Cc1cccc2nc(-c3cccc(-c4ccc(NC(=O)Nc5cccc(C#N)c5)cc4)c3)[nH]c12 | 187
CCOc1cc(C)ccc1C1CCN(CCCCNC(=O)c2ccc(-c3ccc(Cl)cn3)cc2)CC1 | 1610
O=c1c2sc(-c3ccc(Cl)cc3)cc2ncn1Cc1ccc(OCCN2CCCC2)c2ccccc12 | 252
CN(CC(=O)Nc1ccc(F)c(F)c1F)c1ncnc2sc(-c3ccccc3)cc12 | 874
Cc1nc(-c2ccc(-c3ccc(C(=O)Nc4ccc(I)c(OCC5CCCN5C)c4)cc3)c(C)c2)no1 (centres undefined) | 33
O=C1COc2ccc(S(=O)(=O)N3CCC[C@@H]3CCN3CCC(c4c[nH]c5cnccc45)CC3)cc2N1 | 865
CC1CC(NCCCNc2cc(=O)c3ccccc3[nH]2)c2c(Cl)c(Cl)cc(Cl)c21 (centres undefined) | 981
CNCc1ccc(-c2ccc3ccnc(N)c3c2)cc1 | 262
Cc1cc(N[C@@H](Cc2ccccc2)C(=O)NC2CCCC2)nc(NCCCOC(C)C)n1 | 1480
Cc1nc(C)c(-c2ccc(Oc3ccc(OC(F)(F)F)cc3)cc2)c(OC(=O)c2ccc(CN(C)C)cc2)c1Cl | 137
